Results as given in ChEMBL document CHEMBL1142200, “Efficacy of delayed treatment with ST-246 given orally against systemic orthopoxvirus infections in mice” (Antimicrob Agents Chemother, 2007).
Activity calls are given as the source filed them. The rule behind the calls is not given here.

Experiments:
[1] = system: Mus musculus; assay: Effect on mortality of BALB/c mouse inoculated with Cowpox virus BR at 15 mg/kg after 24 hrs of viral infection, ip for 5 days relative to control; format: functional; conditions: route intraperitoneal
[2] = system: Mus musculus; assay: Effect on mortality of BALB/c mouse inoculated with Vaccinia virus WR at 15 mg/kg after 24 hrs of viral infection, ip for 5 days relative to control; format: functional; conditions: route intraperitoneal
[3] = system: Mus musculus; assay: Effect on mortality of BALB/c mouse inoculated with Cowpox virus at 15 mg/kg after 4 hrs of viral infection, ip once daily for 5 days relative to control; format: functional; conditions: route intraperitoneal
[4] = system: Vaccinia virus; assay: Reduction of Vaccinia virus WR replication in BALB/c mouse liver at 15 mg/kg after 24 hrs of viral infection, ip for 5 days; format: functional, organism-based; parameters: dose 15 mg/kg; conditions: Orthopoxvirus vaccinia
[5] = system: Vaccinia virus; assay: Reduction of Vaccinia virus WR replication in BALB/c mouse spleen at 15 mg/kg after 24 hrs of viral infection, ip for 5 days; format: functional, organism-based; parameters: dose 15 mg/kg; conditions: Orthopoxvirus vaccinia
[6] = system: Vaccinia virus; assay: Reduction of Vaccinia virus WR replication in BALB/c mouse kidney at 15 mg/kg after 24 hrs of viral infection, ip for 5 days; format: functional, organism-based; parameters: dose 15 mg/kg; conditions: Orthopoxvirus vaccinia
[7] = system: Mus musculus; assay: Effect on mortality of BALB/c mouse inoculated with Cowpox virus BR at 50 mg/kg after 24 hrs of viral infection, po for 9 days; format: functional, organism-based; parameters: dose 50 mg/kg
[8] = Cytotoxicity against HFF cells; format: cell-based; conditions: human
[9] = Selectivity index, ratio of CC50 for HFF cells to EC50 for Vaccinia virus Copenhagen infected HFF cells; format: functional
[10] = Selectivity index, ratio of CC50 for HFF cells to EC50 for Vaccinia virus WR infected HFF cells; format: functional
[11] = Selectivity index, ratio of CC50 for HFF cells to EC50 for Cowpox virus Brighton infected HFF cells; format: functional
[12] = system: Mus musculus; assay: Effect on mortality of BALB/c mouse inoculated with Cowpox virus at 15 mg/kg after 48 hrs of viral infection, ip once daily for 5 days relative to control; format: functional; conditions: route intraperitoneal
[13] = system: Mus musculus; assay: Effect on mortality of BALB/c mouse inoculated with Cowpox virus at 15 mg/kg after 24 hrs of viral infection, ip once daily for 5 days relative to control; format: functional; conditions: route intraperitoneal
[14] = system: Mus musculus; assay: Effect on mortality of BALB/c mouse inoculated with Cowpox virus at 15 mg/kg after 72 hrs of viral infection, ip once daily for 5 days relative to control; format: functional; conditions: route intraperitoneal
[15] = system: Mus musculus; assay: Effect on mortality of A/NCr mouse inoculated with ectromelia virus at 100 mg/kg after 72 hrs of viral infection, ip once daily for 10 days relative control; format: functional; conditions: route intraperitoneal
[16] = system: Mus musculus; assay: Effect on mortality of A/NCr mouse inoculated with 4.1 PFU ectromelia virus at 100 mg/kg after 4 hrs of viral infection, ip once daily for 14 days; format: functional; conditions: route intraperitoneal
[17] = system: Mus musculus; assay: Effect on mortality of A/NCr mouse inoculated with ectromelia virus at 100 mg/kg after 0 hrs of viral infection, ip once daily for 10 days relative control; format: functional; conditions: route intraperitoneal
[18] = system: Mus musculus; assay: Effect on mortality of A/NCr mouse inoculated with ectromelia virus at 100 mg/kg after 24 hrs of viral infection, ip once daily for 10 days relative control; format: functional; conditions: route intraperitoneal
[19] = system: Mus musculus; assay: Effect on mortality of A/NCr mouse inoculated with ectromelia virus at 100 mg/kg after 48 hrs of viral infection, ip once daily for 10 days relative control; format: functional; conditions: route intraperitoneal
[20] = system: Mus musculus; assay: Effect on mortality of A/NCr mouse inoculated with 41 PFU ectromelia virus at 100 mg/kg after 4 hrs of viral infection, ip once daily for 14 days; format: functional; conditions: route intraperitoneal
[21] = system: Mus musculus; assay: Effect on mortality of A/NCr mouse inoculated with 410 PFU ectromelia virus at 100 mg/kg after 4 hrs of viral infection, ip once daily for 14 days; format: functional; conditions: route intraperitoneal
[22] = system: Mus musculus; assay: Effect on mortality of A/NCr mouse inoculated with 4100 PFU ectromelia virus at 100 mg/kg after 4 hrs of viral infection, ip once daily for 14 days; format: functional; conditions: route intraperitoneal
[23] = system: Cowpox virus; assay: Reduction of Cowpox virus BR replication in BALB/c mouse liver at 15 mg/kg after 24 hrs of viral infection, ip for 5 days; format: functional, organism-based; parameters: dose 15 mg/kg
[24] = system: Cowpox virus; assay: Reduction of Cowpox virus BR replication in BALB/c mouse spleen at 15 mg/kg after 24 hrs of viral infection, ip for 5 days; format: functional, organism-based; parameters: dose 15 mg/kg
[25] = system: Cowpox virus; assay: Reduction of Cowpox virus BR replication in BALB/c mouse kidney at 15 mg/kg after 24 hrs of viral infection, ip for 5 days; format: functional, organism-based; parameters: dose 15 mg/kg

For `Nc1ccn(C[C@@H](CO)OCP(=O)(O)O)c(=O)n1.O.O` [CIDOFOVIR], the Activity [1] was 0%, the Activity [2] was 7% and the Activity [3] was 0%. For the same compound, the Activity [4] was “Active”, the Activity [5] was “Active” and the Activity [6] was “Active”. For the same compound, the Activity [7] was “Active”, the CC50 [8] was greater than 317 µM and the “Ratio CC50/EC50” value [9] was greater than 10.9. For the same compound, the “Ratio CC50/EC50” value [10] was greater than 9.6, the “Ratio CC50/EC50” value [11] was greater than 7.7 and the Activity [12] was 0%. The Activity [13] was 0%, the Activity [14] was 0% and the Activity [15] was 0%. For the same compound, the Activity [16] was 0%, the Activity [17] was 0% and the Activity [18] was 0%. The Activity [19] was 0%, the Activity [20] was 40% and the Activity [21] was 0%. For the same compound, the Activity [22] was 0%, the Activity [23] was “Active” and the Activity [24] was “Active”. For the same compound, the Activity [25] was “Active”.
